Patent publication US20250171438A1 (Agios Pharmaceuticals, Inc., priority 2022, published 2025)
Like-named read-outs stand apart in the source and are kept apart here.

Molecular target: T1, human PAH with the R408W mutation (Homo sapiens, UniProt P00439, R408W)
T1 construct: expressed in transfected cells
T1 sequence (P00439 1-452 R408W): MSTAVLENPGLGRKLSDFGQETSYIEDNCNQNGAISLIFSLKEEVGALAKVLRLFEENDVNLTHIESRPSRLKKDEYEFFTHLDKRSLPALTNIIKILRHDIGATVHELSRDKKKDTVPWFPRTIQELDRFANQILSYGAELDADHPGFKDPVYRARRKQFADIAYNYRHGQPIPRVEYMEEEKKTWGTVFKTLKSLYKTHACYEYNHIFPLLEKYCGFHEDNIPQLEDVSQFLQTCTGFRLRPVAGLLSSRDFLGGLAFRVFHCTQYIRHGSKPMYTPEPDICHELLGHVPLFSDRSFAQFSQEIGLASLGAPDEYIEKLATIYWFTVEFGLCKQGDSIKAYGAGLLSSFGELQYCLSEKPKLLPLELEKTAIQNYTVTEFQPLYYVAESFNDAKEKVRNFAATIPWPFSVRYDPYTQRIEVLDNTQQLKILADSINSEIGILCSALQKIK
Assay: Cell Based Phenylalanine Flux Assay
Parameters: scale not given here
Conditions: 24 hrs with compound, 13C-Tyrosine by LC-MS, average where tested multiple times

[1] = A375 cells expressing human R408W PAH, read-out: AC50
[2] = AC50, A375 cells expressing human R408W PAH
[3] = A375 cells expressing human R408W PAH

AC50 [1] [µM] | Structure (SMILES) | other results
1 to 5 | Nc1cnc(N2CCc3[nH]cnc3C2c2nc3ccccc3s2)nc1 (stereo not drawn) | 
0.5 to 1 | O=C(c1cnc(C2CCC(F)(F)CC2)s1)N1CCc2[nH]cnc2C1c1nc2ccccc2s1 (stereo not drawn) | 
> 5 | Cc1nnc(C(=O)N2CC(C)c3[nH]cnc3C2c2nc3ccccc3s2)o1 (stereo not drawn) [listing 1 of 2 here] | 
> 5 | CC1CN(C(=O)c2nnc(C(C)(C)O)o2)C(c2nc3ccccc3s2)c2nc[nH]c21 (stereo not drawn) [listing 1 of 4 here] | 
> 5 | Cc1nc(C(C)(C)O)oc1C(=O)N1CC(C)c2[nH]cnc2C1c1nc2c(F)cccc2s1 (stereo not drawn) [listing 1 of 4 here] | 
1 to 5 | CC1CN(C(=O)c2cnc(N3CCOCC3)o2)C(c2nc3ccccc3s2)c2nc[nH]c21 (stereo not drawn) [listing 1 of 4 here] | 
> 5 | Cc1nnc(C(=O)N2CC(C)c3[nH]cnc3C2c2nc3ccccc3s2)o1 (stereo not drawn) [listing 2 of 2 here] | 
> 5 | CC1CN(C(=O)c2nnc(C(C)(C)O)o2)C(c2nc3ccccc3s2)c2nc[nH]c21 (stereo not drawn) [listing 2 of 4 here] | 
> 5 | Cc1nc(C(C)(C)O)oc1C(=O)N1CC(C)c2[nH]cnc2C1c1nc2c(F)cccc2s1 (stereo not drawn) [listing 2 of 4 here] | 
> 5 | CC1CN(C(=O)c2cnc(N3CCOCC3)o2)C(c2nc3ccccc3s2)c2nc[nH]c21 (stereo not drawn) [listing 2 of 4 here] | 
1 to 5 | COCCc1ncc(C(=O)N2CC(C)c3[nH]cnc3C2c2nc3ccccc3s2)o1 (stereo not drawn) | 
1 to 5 | CC1CN(C(=O)c2nnc(C(C)(C)O)o2)C(c2nc3ccccc3s2)c2nc[nH]c21 (stereo not drawn) [listing 3 of 4 here] | 
1 to 5 | Cc1nc(C(C)(C)O)oc1C(=O)N1CC(C)c2[nH]cnc2C1c1nc2c(F)cccc2s1 (stereo not drawn) [listing 3 of 4 here] | 
1 to 5 | CC1CN(C(=O)c2cnc(N3CCOCC3)o2)C(c2nc3ccccc3s2)c2nc[nH]c21 (stereo not drawn) [listing 3 of 4 here] | 
> 5 | CC1CN(C(=O)c2cnc(CN(C)C)o2)C(c2nc3ccccc3s2)c2nc[nH]c21 (stereo not drawn) | 
1 to 5 | CC1CN(C(=O)c2nnc(C(C)(C)O)o2)C(c2nc3ccccc3s2)c2nc[nH]c21 (stereo not drawn) [listing 4 of 4 here] | 
1 to 5 | Cc1nc(C(C)(C)O)oc1C(=O)N1CC(C)c2[nH]cnc2C1c1nc2c(F)cccc2s1 (stereo not drawn) [listing 4 of 4 here] | 

AC50 [1] [µM] | Structure (SMILES) | other results
1 to 5 | CC1CN(C(=O)c2cnc(N3CCOCC3)o2)C(c2nc3ccccc3s2)c2nc[nH]c21 (stereo not drawn) [listing 4 of 4 here] | 
> 5 | O=C(Cc1cnco1)N1CCc2[nH]cnc2[C@@H]1c1nc2ccccc2s1 (single isomer, unassigned) | 
> 5 | Cc1noc(C(=O)N2CCc3[nH]cnc3[C@@H]2c2nc3ccccc3s2)n1 (single isomer, unassigned) | 
> 5 | O=C(c1cnco1)N1CCc2[nH]cnc2[C@@H]1c1nc2cc(F)ccc2s1 (single isomer, unassigned) | 
> 5 | Cc1nnc(CC(=O)N2CCc3[nH]cnc3[C@H]2c2nc3ccccc3[nH]2)o1 (single isomer, unassigned) | 
1 to 5 | Cc1nnc(CC(=O)N2CCc3[nH]cnc3[C@H]2c2nc3ccccc3s2)s1 (single isomer, unassigned) | 
1 to 5 | CC(=O)N1CCc2[nH]cnc2[C@H]1c1nc2ccccc2s1 (single isomer, unassigned) | 
1 to 5 | O=C(Cc1cscn1)N1CCc2[nH]cnc2[C@H]1c1nc2ccccc2s1 (single isomer, unassigned) | 
1 to 5 | Cc1nnc(N2CCc3[nH]cnc3[C@H]2c2nc3ccccc3[nH]2)o1 (single isomer, unassigned) | 
1 to 5 | O=C(C1CN(CC(F)(F)F)C1)N1CCc2[nH]cnc2[C@H]1c1nc2ccccc2s1 (single isomer, unassigned) | 
> 5 | Cc1nnc(N2CC(C(=O)N3CCc4[nH]cnc4[C@H]3c3nc4ccccc4s3)C2)o1 (single isomer, unassigned) | 
1 to 5 | Cc1nc(CCC2CC2)oc1C(=O)N1CCCc2[nH]cnc2[C@H]1c1nc2ccccc2s1 (single isomer, unassigned) | 
1 to 5 | Cn1cc(-c2cccc(C(=O)N3CCc4[nH]cnc4[C@H]3c3nc4ccccc4s3)c2)cn1 (single isomer, unassigned) | 
1 to 5 | O=C(N1CC[C@@H](c2ccccc2)C1)N1CCc2[nH]cnc2[C@H]1c1nc2ccccc2s1 (single isomer, unassigned) | 
1 to 5 | c1ccc2sc([C@@H]3c4nc[nH]c4CCN3CC3CC3)nc2c1 (single isomer, unassigned) | 
1 to 5 | O=C(c1cc2ccccn2c1)N1CCc2[nH]cnc2[C@H]1c1nc2ccccc2s1 (single isomer, unassigned) | 
1 to 5 | Cc1ncc(C(=O)N2CCc3[nH]cnc3[C@H]2c2nc3c(F)cccc3s2)o1 (single isomer, unassigned) | 

The next lines start with the molecule.

Structure (SMILES) | AC50 [1] [µM] | other results
O=C(CCc1nccs1)N1CCc2[nH]cnc2C1c1nc2ccc(Br)cc2s1 (stereo not drawn) | 1 to 5 | 
O=C(c1oc(-c2ccccn2)nc1-c1ccccc1)N1CCc2[nH]cnc2C1c1nc2ccccc2s1 (stereo not drawn) | 1 to 5 | 
Cn1ncc(C(=O)N2CCc3[nH]cnc3C2c2nc3c(F)cccc3s2)c1N (stereo not drawn) | > 5 | 
O=C(c1cnco1)N1CCc2[nH]cnc2C1c1nc2c(F)cccc2s1 (stereo not drawn) | 1 to 5 | 
Cc1nnc(C(=O)N2CCc3[nH]cnc3C2c2nc3ccc(Cl)cc3[nH]2)s1 (stereo not drawn) [listing 1 of 2 here] |  | AC50 [2]: > 5 µM
Cc1nnc(C(=O)N2CCc3[nH]cnc3C2c2nc3ccc(Cl)cc3[nH]2)s1 (stereo not drawn) [listing 2 of 2 here] |  | AC50 [2]: 1 to 5 µM
Cc1nnc(CC(=O)N2CCc3[nH]cnc3[C@@H]2c2nc3c(F)cccc3s2)s1 (single isomer, unassigned) | > 5 | 
O=C(Cc1nccs1)N1CCc2[nH]cnc2[C@@H]1c1nc2ccc(Br)cc2[nH]1 (single isomer, unassigned) | > 5 | 
CC(=O)Cn1ncc(C(=O)N2CCc3[nH]cnc3[C@@H]2c2nc3c(F)cccc3s2)c1Cl (single isomer, unassigned) | > 5 | 
Cn1ncc(C(=O)N2CCc3[nH]cnc3[C@@H]2c2nc3c(F)cccc3s2)c1Br (single isomer, unassigned) | > 5 | 
COCCNc1nnc(C(=O)N2CCc3[nH]cnc3[C@@H]2c2nc3ccccc3s2)o1 (single isomer, unassigned) | > 5 | 
O=C(c1ncn2ccccc12)N1CCc2[nH]cnc2[C@@H]1c1nc2ccc(F)cc2s1 (single isomer, unassigned) | > 5 | 
CN(C)CCCc1nnc(C(=O)N2CCc3[nH]cnc3[C@@H]2c2nc3ccccc3s2)o1 (single isomer, unassigned) | > 5 | 
O=C(c1cnn2c(Br)cccc12)N1CCc2[nH]cnc2[C@@H]1c1nc2ccccc2[nH]1 (single isomer, unassigned) | > 5 | 
O=C(c1nccs1)N1CCc2[nH]cnc2[C@@H]1c1nc2ccc(Cl)cc2[nH]1 (single isomer, unassigned) | > 5 | 
O=C(c1oc(-c2ccccn2)nc1C(F)(F)F)N1CCc2[nH]cnc2[C@@H]1c1nc2ccccc2s1 (single isomer, unassigned) |  | AC50 [3]: E, E
Cn1cc(-c2nc(C(F)(F)F)c(C(=O)N3CCc4[nH]cnc4[C@@H]3c3nc4ccccc4s3)o2)cn1 (single isomer, unassigned) |  | AC50 [3]: E, E
COCc1ccc2c(C(=O)N3CCc4[nH]cnc4[C@@H]3c3nc4ccccc4s3)c(C(F)F)nn2c1 (single isomer, unassigned) |  | AC50 [3]: E, E

Structure (SMILES) | AC50 [1] [µM] | other results
Cn1nc(CO)cc1C(=O)N1CCc2[nH]cnc2[C@@H]1c1nc2c(F)cccc2s1 (single isomer, unassigned) | > 5 | 
COC(=O)N1CC(C(=O)N2CCc3[nH]cnc3[C@@H]2c2nc3c(F)cccc3s2)C1 (single isomer, unassigned) | > 5 | 
O=C(Cc1nncs1)N1CCc2[nH]cnc2[C@H]1c1nc2c(F)cccc2s1 (single isomer, unassigned) | 1 to 5 | 
O=C(CCc1nccs1)N1CCc2[nH]cnc2[C@H]1c1nc2cccc(F)c2[nH]1 (single isomer, unassigned) | 1 to 5 | 
Cc1c(C(=O)N2CCc3[nH]cnc3[C@H]2c2nc3c(F)cccc3s2)cnn1C (single isomer, unassigned) | 1 to 5 | 
O=C(c1c(C(F)(F)F)nn2ccccc12)N1CCc2[nH]cnc2[C@H]1c1nc2ccccc2s1 (single isomer, unassigned) |  | AC50 [3]: E, E
Cn1nc(CC#N)nc1C(=O)N1CCc2[nH]cnc2[C@H]1c1nc2ccccc2s1 (single isomer, unassigned) | 1 to 5 | 
NC(=O)c1nc(-c2ccccn2)oc1C(=O)N1CCc2[nH]cnc2[C@H]1c1nc2ccccc2s1 (single isomer, unassigned) |  | AC50 [3]: E, E
O=C(c1cnn2cccc(F)c12)N1CCc2[nH]cnc2[C@H]1c1nc2cc(F)ccc2s1 (single isomer, unassigned) | 1 to 5 | 
O=C(c1nccs1)N1CCc2[nH]cnc2[C@H]1c1nc2ccc(Cl)cc2s1 (single isomer, unassigned) | 1 to 5 | 
O=C(c1cnn2ccccc12)N1CCc2[nH]cnc2[C@H]1c1nc2ccc(Cl)cc2s1 (single isomer, unassigned) | 1 to 5 | 
CN(C)CCCc1nnc(C(=O)N2CCc3[nH]cnc3[C@H]2c2nc3ccccc3s2)o1 (single isomer, unassigned) | 1 to 5 | 
O=C(c1nncs1)N1CCc2[nH]cnc2[C@H]1c1nc2ccccc2[nH]1 (single isomer, unassigned) | 1 to 5 | 
Cc1nnc(C(=O)N2CCc3[nH]cnc3[C@H]2c2nc3cc(Br)ccc3[nH]2)s1 (single isomer, unassigned) | 1 to 5 | 
O=C(c1cnn2cc(Cl)ccc12)N1CCc2[nH]cnc2[C@H]1c1nc2ccc(Br)cc2[nH]1 (single isomer, unassigned) | 1 to 5 | 
O=C(c1nccs1)N1CCc2[nH]cnc2[C@H]1c1nc2ccc(F)cc2[nH]1 (single isomer, unassigned) | 1 to 5 | 
Cc1nc(-c2ccccn2)oc1C(=O)N1CC2(CC2)c2[nH]cnc2[C@H]1c1nc2ccccc2s1 (single isomer, unassigned) | 1 to 5 | 
